Test results reported in patent US4996237A, “Combretastatin A-4” (Arizona Board of Regents, priority 1988, dated 1991).
Entries after “also recorded” stand apart in the source; their conditions may differ.

Legend:
tubulin [1] = details: previously isolated from Combretum caffrum; cited from earlier work
[2] = system: P388 lymphocytic leukemia cell line; experiment: growth inhibition of murine P388 lymphocytic leukemia cell line (PS system); format: cell-based
[3] = system: L1210 lymphocytic leukemia cell line; experiment: growth inhibition of murine L1210 lymphocytic leukemia cell line; format: cell-based
[4] = system: HCT-15 human colon cancer cell line; experiment: growth inhibition of human colon cancer cell line HCT-15; format: cell-based; details: read-out: ED50, HCT-15
[5] = system: DLD-1 human colon cancer cell line; experiment: growth inhibition of human colon cancer cell line DLD-1; format: cell-based; details: read-out: ED50, DLD-1
tubulin [6] = experiment: inhibition of colchicine binding to tubulin; details: competes with combretastatin A-1
tubulin [7] = experiment: inhibition of microtubule assembly / tubulin polymerization; format: biochemical
[8] = system: VoLo human colon cancer cell line; experiment: growth inhibition of human colon cancer cell line VoLo; format: cell-based; details: read-out: ED50, VoLo
antimitotic activity = details: among the Combretum caffrum constituents

SMILES: COc1ccc(/C=C\c2cc(OC)c(OC)c(OC)c2)c(O)c1O [combretastatin A-1]
- inhibition of microtubule assembly (in words), earlier isolated substances (tubulin [1]): potent inhibitors of microtubule assembly

SMILES: COc1ccc(/C=C/c2cc(OC)c(OC)c(OC)c2)cc1O [trans-isomer]
- activity against P388 cell line (in words) [2]: significantly active
- activity against L1210 cell line (in words) [3]: significantly active

SMILES: COc1ccc(/C=C\c2cc(OC)c3c(c2)OCO3)cc1O [combretastatin A-2]
- inhibition of microtubule assembly (in words), earlier isolated substances (tubulin [1]): potent inhibitors of microtubule assembly

SMILES: COc1ccc(/C=C\c2cc(OC)c(OC)c(OC)c2)cc1O [Combretastatin A-4]
- activity against P388 cell line (in words) [2]: significantly active
- IC50 ([2]; Mus musculus, P388, read-out: ED50, growth of P388 cell line): < 0.003 µg/mL
- activity against L1210 cell line (in words) [3]: significantly active
- IC50 ([3]; Mus musculus, L1210, read-out: ED50, growth of L1210 cell line): < 0.003 µg/mL
- antimitotic activity (in words) (antimitotic activity): strongest antimitotic agent
